Consider 19 compounds from patent US20100075957A1, “AMINODIHYDROTHIAZINE DERIVATIVES SUBSTITUTED WITH A CYCLIC GROUP” (SHIONOGI & CO., LTD., priority 2007, published 2010).

This test has as its target T1, Recombinant human BACE-1 (Homo sapiens, UniProt P56817).
T1 construct: purchased R&D Systems
The experiment in a line: Assay of β-secretase-inhibiting activity.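 Also: substrate is a peptide carrying biotin and europium cryptate, after the enzyme reaction, Streptavidin-XL665 is added and incubated 1 h at 30 °C before fluorescence reading.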 It is filed as biochemical. To be noted: Recombinant human BACE-1 7.4 nM, substrate peptide 18 nM, pH 5.0, 30° C., 3 hours.

Setting [1] is: time-resolved fluorescence ratio 665/620, read-out: IC50 values (50% inhibitory concentration against the enzymatic activity).

SMILES strings stand for the structures. Where two headings read alike, the source gives them in different places.

T1 sequence (P56817 46-501): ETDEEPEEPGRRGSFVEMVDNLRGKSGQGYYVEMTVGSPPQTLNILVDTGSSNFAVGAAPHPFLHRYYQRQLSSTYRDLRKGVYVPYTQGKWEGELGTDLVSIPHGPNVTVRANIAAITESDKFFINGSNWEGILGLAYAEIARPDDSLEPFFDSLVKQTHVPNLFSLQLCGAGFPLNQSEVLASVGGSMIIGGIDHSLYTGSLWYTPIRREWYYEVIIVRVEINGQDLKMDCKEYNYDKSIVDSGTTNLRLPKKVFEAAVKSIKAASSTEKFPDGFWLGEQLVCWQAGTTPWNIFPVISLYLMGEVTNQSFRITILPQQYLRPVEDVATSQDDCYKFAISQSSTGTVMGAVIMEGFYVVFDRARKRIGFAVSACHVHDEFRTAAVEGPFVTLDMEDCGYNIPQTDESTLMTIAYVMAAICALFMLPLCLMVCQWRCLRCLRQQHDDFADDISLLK

Regarding `Cc1cc(C(=O)Nc2ccc(F)c([C@]3(C)CCSC(N)=N3)c2)ns1` [Compound 507], the IC50 under setting [1] is at most 1000 nM.
`Cc1nc(C(=O)Nc2ccc(F)c([C@]3(C)CCSC(N)=N3)c2)c(C)o1` [Compound 554]: the IC50 under setting [1] was at most 1000 nM.
Regarding `CC#CCOc1ccc(C(=O)Nc2cccc([C@]3(C)CCSC(N)=N3)c2)nc1` [Compound 35], the IC50 under setting [1] was at most 1000 nM.
On to `C[C@@]1(c2cc(NC(=O)COc3ccccc3O)ccc2F)CCSC(N)=N1` [Compound 149], for which the IC50 (Table 139, read-out: IC50) came out at 9250 nM.
As for `C[C@@]1(c2cc(NC(=O)c3ccc(OCC(N)=O)cn3)ccc2F)CCSC(N)=N1` [Compound 559], under “Table 140, read-out: IC50”, the IC50 came to 420 nM.
Take `C#CCOc1cnc(C(=O)Nc2cncc([C@]3(C)CCSC(N)=N3)c2)cn1` [Compound 556]: under setting [1], the IC50 was at most 1000 nM.
As to `C[C@@]1(c2cc(NC(=O)c3cnc(Cl)cn3)ccc2Br)CCSC(N)=N1` [Compound 517], where the note is “Table 140, read-out: IC50”, the IC50 turned out to be 130 nM.
On to `C[C@@]1(c2cccc(NC(=O)c3cnc(OCCC(F)(F)F)cn3)c2)CCSC(N)=N1` [Compound 89], for which the IC50 under setting [1] is at most 1000 nM.
In the case of `C[C@@]1(c2cc(NC(=O)CSc3nccc(O)n3)ccc2F)CCSC(N)=N1` [Compound 163], the IC50 (Table 139, read-out: IC50) came to 6790 nM.
For the compound `C[C@@]1(c2cc(NC(=O)c3cnc(OCCF)cn3)ccc2F)CCSC(N)=N1` [Compound 132], the IC50 under setting [1] was at most 1000 nM.
On the same count and under the same terms, the same measure for `CCCCCc1cnc(C(=O)Nc2ccc(F)c([C@]3(C)CCSC(N)=N3)c2)cn1` [Compound 115]: at most 1000 nM; for `Cc1cnc(C(=O)Nc2ccc(F)c([C@@]3(C)N=C(N)SCC3(C)C)c2)cn1` [Compound 649]: at most 1000 nM; for `COc1cnc(C(=O)Nc2cccc([C@]3(C)CC(C)(C)SC(N)=N3)c2)cn1` [Compound 694]: at most 1000 nM.
Still for that read-out and setting: as for `C[C@@]1(c2cc(NC(=O)c3cn4cc(C#N)nc4cn3)ccc2F)CCSC(N)=N1` [Compound 697], the figure is at most 1000 nM; as for `C#CCOc1cnc(C(=O)Nc2ccnc([C@]3(C)CCSC(N)=N3)c2)cn1` [Compound 659], at most 1000 nM.
As for `Cc1cnc(C(=O)Nc2ccnc([C@]3(C)CC(C)(C)SC(N)=N3)c2)cn1` [Compound 653], the IC50 under setting [1] was at most 1000 nM.
With `COc1cnc(C(=O)Nc2cccc([C@]3(C)CCSC(N)=N3)n2)cn1` [Compound 589], under “Table 140, read-out: IC50”, the IC50 worked out at 60 nM.
Regarding `COc1cnc(C(=O)Nc2ccc(F)c([C@]3(C)CCSC(N)=N3)c2)c(F)c1` [Compound 512], the IC50 under setting [1] is at most 1000 nM.
Consider `C[C@@]1(c2cccc(NC(=O)c3cnc(Cl)cn3)c2)CCSC(N)=N1` [Compound 58], for which the IC50 under setting [1] is at most 1000 nM.
